The test system of experiment [1] is Pyricularia oryzae, Strain J1. It is filed as cell-based. The note with it: for Fractional contribution of metabolite RI 3507: control 0.09 to 0.12; for Position of enzymatic inhibition in the metabolic sequence (breaking point): from increase/decrease of label incorporation, FIG. 3; for Non-polar metabolites changed (number of metabolite MIDs) / Polar metabolites changed (number of metabolite MIDs): treatment vs control; for Non-polar metabolites changed (number of metabolite MIDs): threshold 2% M0 difference, non-polar phase; for Polar metabolites changed (number of metabolite MIDs): threshold 5% M0 difference, polar phase.

In experiment [2] the test system is ergosterol biosynthesis. Briefly: Metabolomics (metabolite profiling) of fenpropidin treatment, FIG. 5. It counts as cell-based. The note with it: samples 0.5, 2, 6 and 48 hours after treatment.
The subject of experiment [3] is Lemna paucicostata. The note with it: in vivo.

Where two headings read alike, the source gives them in different places.

As to `CC(Cc1ccc(C(C)(C)C)cc1)CN1CCCCC1` (stereo not drawn) [fung 1, Fenpropidin], in experiment [1], the “Mode-of-action pinpointed by MIAMI” value was “a hand full of potential targets in steroid biosynthesis”; the “Position of enzymatic inhibition in the metabolic sequence (breaking point)” value was “between metabolites RI 3507 and RI 3309”; the “Non-polar metabolites changed (number of metabolite MIDs)” value was found to be 34; the “Polar metabolites changed (number of metabolite MIDs)” value was found to be 19. The “Fractional contribution of metabolite RI 3507” value in experiment [1] (2 hours after treatment) worked out at 0.16. Further, in experiment [1] (6 hours after treatment), the “Fractional contribution of metabolite RI 3507” value is 0.18. For the same compound, in experiment [2], the “Change in ergosterol (metabolomics, fold-change to control)” value was “reductions in ergosterol, however not significantly after 6 hours”.

In the case of `CC(C)C1(C)N=C(c2ncccc2C(=O)O)NC1=O` (stereo not drawn) [herbicide four, Imazapyr], in experiment [3], the “Change in fractional contribution of differentially labeled metabolites” value was “increase in fractional contribution, except for valine” and the “Mode-of-action indicated by MIAMI” value is on record as “mode-of-action in the valine biosynthesis pathway”.

As to `Fc1ccc([C@]2(Cn3cncn3)O[C@H]2c2ccccc2Cl)cc1` (racemic) [fung 2, Epoxiconazole], in experiment [1], the “Mode-of-action pinpointed by MIAMI” value is recorded as “a hand full of potential targets in steroid biosynthesis”; the “Position of enzymatic inhibition in the metabolic sequence (breaking point)” value was “between RI 3569 and RI 3309”; the “Non-polar metabolites changed (number of metabolite MIDs)” value came to 34; the “Polar metabolites changed (number of metabolite MIDs)” value is listed as 26. The “Fractional contribution of metabolite RI 3507” value in experiment [1] (2 hours after treatment) amounted to 0.17. For the same compound, the “Fractional contribution of metabolite RI 3507” value in experiment [1] (6 hours after treatment) is reported as 0.37.

The values above are taken from US20220137057A1 (priority 2019, published 2022).
